Reference: patent EP1200455B1, “ENZYME CATALYZED THERAPEUTIC ACTIVATION” (Celmed Oncology (USA), Inc., priority 1999, dated 2001)

Key:
[1] = tested on: CCd18co; test: AlamarBlue cell proliferation (cytotoxicity) assay; assay type: cell-based, human; details: 120 hours drug exposure, normal colon epithelium cells
Procedure: (§1) Cells growing exponentially were transferred to 384-well flat bottom tissue culture plates. […] After 24 hours (day 0), 25 µL of complete medium containing the compounds over the dose range of 10^-3 to 10^-10 M were added in triplicate. Drug exposure time was 120 hours (day 5), after which growth inhibition was assayed. 5 µL of the redox indicator, alamarBlue, was added to each well (10% v/v).
(§2) Numbering in Tables 5 and 6 refer to the structures, shown infra. […] MCF7-TDX was derived from MCF7 breast tumor cells via selection in cell culture in the presence of Tomudex, a direct inhibitor of TS. […] Similarly, H630R10 is a 5FU (fluoropyrimidine) resistant colon cancer epithelial cell line derived from H630 colon cancer cells. […] HT1080, #12, is a fibrosarcoma tumor cell line that expresses high levels ofTS via a transgene introduced into HT1080 tumor cells. Normal cell lines used in these assays include CCD180co (normal colon epithelium) and Det551 (normal skin).

[2] = tested on: Det551; test: AlamarBlue cell proliferation (cytotoxicity) assay; assay type: cell-based, human; details: 120 hours drug exposure, normal skin cells
Procedure: as §1, §2

[3] = tested on: H630R10; test: AlamarBlue cell proliferation (cytotoxicity) assay; assay type: cell-based, human; details: 120 hours drug exposure, dose range 10^-3 to 10^-10 M
Procedure: as §1, §2

[4] = tested on: MCF7TDX; test: AlamarBlue cell proliferation (cytotoxicity) assay; assay type: cell-based, human; details: 120 hours drug exposure, dose range 10^-3 to 10^-10 M
Procedure: as §1, §2

[5] = tested on: HT1080; test: AlamarBlue cell proliferation (cytotoxicity) assay; assay type: cell-based; details: dose range 10^-3 to 10^-10 M
Procedure: as §1, §2

[6] = tested on: Tumor Cells; test: AlamarBlue cell proliferation (cytotoxicity) assay, mean over tumor cells; assay type: cell-based; details: for mean IC30 over tumor cell lines: alamarBlue, mean of the MCF7TDX, H630R10 and HT1080 (µM); for activity (in words, summary of Tables 5 and 6): text comment on the cytotoxicity data
Procedure: as §1, §2

[7] = tested on: Normal Cells; test: AlamarBlue cell proliferation (cytotoxicity) assay, mean over normal cells; assay type: cell-based, human; details: mean of CCd18co and Det551 (µM)
Procedure: as §1, §2

[8] = tested on: H630R10; test: Crystal violet cell proliferation inhibition assay; assay type: cell-based, human; details: 72 hours incubation
Procedure: (§3) Compound concentrations from 1 µM to 3000 µM were tested.
as §2

[9] = tested on: HT1080 # 12; test: Crystal violet cell proliferation inhibition assay; assay type: cell-based; details: high TS via transgene
Procedure: as §3, §2
(§4) Table 7. Cytotoxic Activity of NB1024 Isomers

[10] = tested on: Tumor Cells; test: Crystal violet cell proliferation inhibition assay, mean over tumor cells; assay type: cell-based
Procedure: as §3, §2

[11] = tested on: Normal Cells; test: Crystal violet cell proliferation inhibition assay, mean over normal cells; assay type: cell-based, human; details: mean of the CCD18co and Det551 columns
Procedure: as §3, §2

[12] = tested on: CCd18co; test: Crystal violet cell proliferation inhibition assay; assay type: cell-based; details: Homo sapiens, CCD-18Co, 72 hours incubation, normal colon epithelium cells
Procedure: as §3, §2, §4

[13] = tested on: Det551; test: Crystal violet cell proliferation inhibition assay; assay type: cell-based; details: Homo sapiens, 72 hours incubation, normal skin cells
Procedure: as §3, §2, §4

[14] = tested on: H630R10 (5-FU resistant colon cancer cell line); test: Amount of nucleoside and monophosphate in cells (HPLC of lysates after BVdU treatment); details: 2 days treatment with 100 µm BVdU
Procedure: (§5) 100 µM of BVdU was added to each dish and the cells continued to grow for 2 days at 37°C. After that, the medium was aspirated and the cells were washed twice with phosphate buffered saline (PBS). Then 1 ml of PBS per dish was added and the dishes were placed in a -80°C freezer. The cells were disrupted via freezing/thawing procedure, repeated twice. The cell debris in the resulting suspension were spun down (13,000 rpm,10 minutes) and the supernatant was deproteinized by passing though a Centrifugal Filter Device (Centrifree, 30,000 cut-off, Amicon) by centrifugation at 5,000 rpm for 30 minutes on Sorvall Super T21 centrifuge (Rotor SL-50-T, 1,912 g) at 20°C. The pass-through was concentrated to the volume of 100 µl, and injected onto an HPLC column (Adsorbosphere HS, C18, 5 µm, 4.6 mm x 150 mm, Alltech). The samples were analyzed using acetonitrile gradient in water containing trifluoroacetic acid. The peaks were detected at 300 mm the maximum of absorption of BVdU-derivatives, and the amounts of compounds were expressed as peak area at 300 nm. […]
(§6) The amounts of reference compounds BVdUMP or BVdU present in lysates call lines MCF7, MCF7TDX, and H630R10 each treated with BVdU, are expressed as an area of a corresponding HPLC peak at 300 nm. […]
(§7) Cells were incubated in complete media with 100 µm BVdU. Lysates were prepared and BVdUMP and BVdU levels were determined.

[15] = tested on: MCF7 (breast cancer cell line)
Procedure: as §5, §6, §7

[16] = tested on: MCF7TDX (Tomudex resistant breast cancer cell line)
Procedure: as §5, §6, §7

[17] = tested on: H630R10 (5-FU resistant colon cancer cell line)
Procedure: as §5, §6, §7

[18] = Homo sapiens, HT-1080, 120 hours drug exposure

In the case of “5-(2-Bromovinyl)-2'-Deoxyuridine Phenyl N-Methoxy-L-alaninyl Phosphoramidate [NB1011]”, the IC50 [1] is reported as 414 µM, the IC50 [2] is reported as 398 µM and the IC30 [3] is reported as 82 µM. For the same molecule, the IC30 [4] was 2 µM, the IC30 ([5]; 120 hours drug exposure) was 182 µM and the mean IC30 over tumor cell lines [6] was 88.7 µM. It also gave an IC50 [7] of 406 µM, an IC50 [8] of 130 µM and an IC50 ([9]; 72 hours incubation) of 1.2 µM. For the same molecule, the IC50 ([10]; mean of the H630R10 and HT1080 # 12 columns (uM)) was 65.6 µM and the IC50 [11] was 382 µM.

O=c1[nH]c(=O)n([C@H]2C[C@H](O)[C@@H](CO)O2)cc1/C=C/Br [BVdU, (E)-5-(2-Bromovinyl)-2'-deoxyuridine, reference compound] showed an IC50 ([1]; Homo sapiens, CCD-18Co) of 1000 µM, an IC30 ([3]; Homo sapiens) of 201 µM and an IC30 ([4]; Homo sapiens) of 0.02 µM. It also gave an IC30 [5, 18] of 719 µM, a mean IC30 over tumor cell lines ([6]; Homo sapiens, HT-1080) of 307 µM and an IC50 ([7]; Homo sapiens, CCD-18Co) of 1000 µM. For the same molecule, the IC50 ([8]; Homo sapiens) was 405 µM, the IC50 [12] was 1000 µM and the IC50 [13] was 625 µM. It also gave an IC50 ([9]; Homo sapiens, HT-1080, 72 hours incubation) of 7 µM, an IC50 ([10]; Homo sapiens, HT-1080, mean of the H630R10 and HT1080 # 12 columns (uM)) of 206 µM and an IC50 ([11]; Homo sapiens, CCD-18Co) of 812 µM. For the same molecule, the “BvdUMP/(BVdUMP + BVdU) x100” value [14] was < 4.

For O=c1[nH]c(=O)n([C@H]2C[C@H](O)[C@@H](COP(=O)(O)O)O2)cc1/C=C/Br [BVdUMP], the “amount present in cell lysate, expressed as area of the HPLC peak at 300 nm” value (“amount present in cell lysate, expressed” for short) [15] was 63.7, the “amount present in cell lysate, expressed” value [16] was 10.9 and the “amount present in cell lysate, expressed” value [17] was < 1.

COC(=O)[C@H](C)NP(=O)(OC[C@H]1O[C@@H](n2cc(/C=C/Cl)c(=O)[nH]c2=O)C[C@@H]1O)Oc1ccccc1 (some centres unmarked) [NB1013] was tested, and the IC50 [2] was 570 µM, the IC30 [3] was 92 µM and the IC30 [4] was 26 µM. For the same molecule, the mean IC30 over tumor cell lines [6] was 59 µM and the IC50 [7] was 570 µM.

With COC(=O)C(C)NP(=O)(OCC1OC(n2cc(C(F)(F)F)c(=O)[nH]c2=O)CC1O)Oc1ccccc1 (centres unmarked) [NB1014] the IC50 [2] was 239 µM, the IC30 [3] was 287 µM and the IC30 [4] was 396 µM. The mean IC30 over tumor cell lines [6] was 342 µM and the IC50 [7] was 139 µM.

O=c1[nH]c(=O)n([C@H]2C[C@H](O)[C@@H](CO)O2)cc1C=CCl [NB1020, 5-(2-chlorovinyl)-2'-deoxyuridine] was tested, and the IC50 ([1]; Homo sapiens, CCD-18Co) was 1000 µM, the IC30 ([3]; Homo sapiens) was 326 µM and the IC30 ([4]; Homo sapiens) was 0.48 µM. It also gave an IC30 [5, 18] of 1000 µM, a mean IC30 over tumor cell lines ([6]; Homo sapiens, HT-1080) of 442 µM and an IC50 ([7]; Homo sapiens, CCD-18Co) of 1000 µM.

With COC(=O)C(C)NP(=O)(OCC1OC(n2ccc(=O)[nH]c2=O)CC1O)Oc1ccccc1 (centres unmarked) [NB1025] the IC50 [1] was 378 µM, the IC30 [4] was 49 µM and the IC30 ([5]; 120 hours drug exposure) was 454 µM. The mean IC30 over tumor cell lines [6] was 232 µM, the “activity (in words, summary of Tables 5 and 6)” value [6] was “active” and the IC50 [7] was 378 µM.

O=c1ccn(C2CC(O)C(CO)O2)c(=O)[nH]1 (centres unmarked) [NB1026] gave an IC30 [3] of 1000 µM, an IC30 [4] of 1000 µM and an IC30 ([5]; 120 hours drug exposure) of 1000 µM. For the same molecule, the “activity (in words, summary of Tables 5 and 6)” value [6] was “little detectable activity”.
